According to patent US20180296456A1, “Decapeptide-12 Modulation of Sirtuin Gene Expression in Epidermal Keratinocyte Progenitors” (Escape Therapeutics, Inc., priority 2017, published 2018):
Ends that are not written are not given here. Peptide text beside a SMILES is read from it.

How the values were obtained:
[1] = system: SIRT3; assay: SIRT3 transcription, semi-quantitative RT-PCR in human epidermal progenitors; assay type: cell-based; conditions: 72 h
Procedure: Human neonatal epidermal progenitors (Thermo Fisher Scientific, NY) were seeded in 6-well plates at a density of 2×10^5 cells/well. Each well received 2 ml of Epilife media containing 60 μM calcium chloride (Thermo Fisher Scientific, NY). Plates were incubated in a humidified chamber at 37 degrees Celsius and 5 percent CO2. Twenty-four hours later, cells were treated with various concentrations of oxyresveratrol or decapeptide-12 dissolved in PBS containing 5 percent DMSO. Control wells received vehicle only (5 percent DMSO and PBS). Final concentration of DMSO in each well was 0.05 percent.
After a 72 hour incubation period, cells were trypsinized and total RNA extracted, using RNeasy kit (Qiagen, Valencia, Calif.) according to the manufacturer's protocol.
RNA concentration was determined using nanodrop (Thermo fisher scientific, NY). Two μg of total RNA were used to synthesize cDNA using oligo dT primers and TaqMan reverse transcription reagents (Thermo fisher scientific, NY). The reaction was carried out in DNA Engine Peltier Thermal Cycler (Bio-Rad, Hercules, Calif.). The annealing temperature was 25 degrees Celsius for 10 minutes, followed by first strand synthesis at 48 degrees Celsius for 1 hour, and heat inactivation at 95 degrees Celsius for 5 minutes.
The SIRT1-7 primers (table 1) were designed using Primer3. The semi-quantitative PCR reactions were performed on a DNA Engine Peltier Thermo Cycler (Bio-Rad, Hercules, Calif.). PCR was carried under the following conditions: denaturation at 94 degrees Celsius for 2 minutes and primer extension at 54 degrees Celsius for 30 seconds in 34 cycles for SIRT 1-7 and the housekeeping gene 18S.
Samples were run and resolved on a 1.5 percent agarose gel containing 0.5 μg/ml of ethidium bromide and imaged using the FluorChem HD2 Imaging System (Protein simple, San Jose, Calif.). Densitometry analysis was carried out using the AlphaEase FC software (Protein simple, San Jose, Calif.). Intensity ratios were calculated as the intensity value for each gene divided by the intensity value of the internal control gene 18S.
The effect of the decapeptides P4, P4A, P4B, and P4C upon the transcription levels of sirtuins 1-7 was evaluated. Table 4 summarizes transcription levels for all four decapeptides with the corresponding genes, at tested concentrations of: 10, 30, 50, 100, and 300 (all in μM).

[2] = Trypan blue cell viability, 7 days, epidermal progenitors; assay type: cell-based; conditions: human, relative to control, read-out: epidermal progenitor viability after 7 days
Procedure: (§1) The effect of each of the decapeptides upon cell viability was also tested. In particular, cells were incubated with the decapeptide at various concentrations and then counted for viability relative to the control (untreated cells) using trypan blue. Cytotoxicity was measured according to the following formula:
(§2) [1−(# of cells in control−# of live cells in test sample)/# of cells in control]×100 percent.

[3] = MTT cell proliferation assay, fibroblasts; assay type: cell-based, human; conditions: human, MTT, 72 h, read-out: fibroblast proliferation rate after 72 hours
Procedure: (§3) Proliferation rates for three human cell lines (epidermal progenitors, melanoblasts, and fibroblasts) were determined using a TACS® MTT Cell Proliferation Kit. Cells were seeded at 2.5×10^4/well in 96-well plates in a humidified atmosphere with 5 percent CO2 at 37 degrees Celsius. Twenty-four hours later, the decapeptides were added to the corresponding wells at varying concentrations and incubated for 72 hours. The remainder of the procedure was performed following the manufacturer's protocol.

[4] = system: fibroblasts; assay: MTT cell proliferation assay, fibroblasts; assay type: cell-based, human; conditions: 100 μM, 72-hour incubation
Procedure: as §3

[5] = system: melanoblasts; assay: MTT cell proliferation assay, melanoblasts; assay type: cell-based, human; conditions: 100 μM, 72-hour incubation
In short: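 Human fibroblasts and melanoblasts were seeded at 2.5×10^4/well at 37 degrees Celsius, 5 percent CO2. Proliferation was read by MTT kit per manufacturer's protocol.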

[6] = Trypan blue cell viability, 7 days, melanoblasts; assay type: cell-based; conditions: human, relative to control, read-out: melanoblast viability after 7 days
Procedure: as §1, §2

[7] = system: human skin; conditions: previously reported; cited from earlier work
[8] = system: patients with dyschromia; conditions: topical cream containing 0.01 percent, twice daily for 8 weeks; cited from earlier work
[9] = system: human epidermal progenitors; assay: Trypan blue dye exclusion cytotoxicity assay, 72 h, epidermal progenitors; assay type: cell-based; conditions: human epidermal progenitors; for cell death: 72 h, trypan blue
Procedure: Cellular toxicity was measured using a trypan blue dye exclusion assay. Cells were cultured in 6-well plates at a density of 4×10^5 cells/well. Each well received a different concentration of decapeptide-12 or oxyresveratrol (0, 3, 10, 30, 100, 300, and 1000 μM). Plates were incubated at 37 degrees Celsius in a humidified 5 percent CO2 chamber. After 72 h, an aliquot was taken and cells counted using a hemacytometer. Cytotoxicity was measured according to the following formula: [1−(# of cells in control−# of live cells in test sample)/# of cells in control]×100 percent.

Compound: CCCCCCCCCCCCCCCC(=O)N[C@@H](Cc1ccc(O)cc1)C(=O)N[C@@H](CCCNC(=N)N)C(=O)N[C@@H](CO)C(=O)N[C@@H](CCCNC(=N)N)C(=O)N[C@@H](CCCCN)C(=O)N[C@@H](Cc1ccc(O)cc1)C(=O)N[C@@H](CO)C(=O)N[C@@H](CO)C(=O)N[C@@H](Cc1c[nH]c2ccccc12)C(=O)N[C@@H](Cc1ccc(O)cc1)C(N)=O [P4A, Palmitoyl-YRSRKYSSWY-amide] (HELM PEPTIDE1{[CCCCCCCCCCCCCCCC(=O)[*:2]].Y.R.S.R.K.Y.S.S.W.Y.[am]}$$$$V2.0)
- SIRT3 transcription increase relative to control ([1]; 10 μM): 25 ± 4%
- SIRT3 transcription increase relative to control ([1]; 30 μM): 26 ± 3%
- SIRT3 transcription increase relative to control ([1]; 50 μM): 60 ± 4%
- SIRT3 transcription increase relative to control ([1]; 100 μM): 152 ± 2%
- SIRT3 transcription increase relative to control ([1]; 300 μM): 147 ± 2%
- viability at 168 h, 3 µM [2]: 100%
- viability at 168 h, 10 µM [2]: 99 ± 1%
- viability at 168 h, 30 µM [2]: 98.2 ± 1%
- viability at 168 h, 50 µM [2]: 97.5 ± 1%
- viability at 168 h, 100 µM [2]: 96.9 ± 2%
- viability at 168 h, 300 µM [2]: 95.6 ± 2%
- viability at 168 h, 500 µM [2]: 94.3 ± 2%
- viability at 168 h, 1000 µM [2]: 93.6 ± 3%
- viability at 72 h, 3 µM [3]: 100%
- viability at 72 h, 10 µM [3]: 99 ± 1%
- viability at 72 h, 30 µM [3]: 98 ± 1%
- viability at 72 h, 50 µM [3]: 98 ± 1%
- viability at 72 h, 100 µM [3]: 97 ± 2%
- viability at 72 h, 300 µM [3]: 97 ± 2%
- viability at 72 h, 500 µM [3]: 96 ± 2%
- viability at 72 h, 1000 µM [3]: 95 ± 2%
- reduction in the proliferation rate [4]: 3%
- reduction in the proliferation rate [5]: 3%
- viability at 168 h, 3 µM [6]: 100%
- viability at 168 h, 10 µM [6]: 99 ± 1%
- viability at 168 h, 30 µM [6]: 98.5 ± 1%
- viability at 168 h, 50 µM [6]: 98 ± 1%
- viability at 168 h, 100 µM [6]: 97 ± 2%
- viability at 168 h, 300 µM [6]: 96.2 ± 2%
- viability at 168 h, 500 µM [6]: 95.6 ± 2%
- viability at 168 h, 1000 µM [6]: 94.8 ± 2%

Compound: YRSRKYSSWY [decapeptide-12, YRSRKYSSWY]
- SIRT3 transcription increase relative to control ([1]; 3 μM): 4 ± 1%
- SIRT3 transcription increase relative to control ([1]; 10 μM): 9.2 ± 2.8%
- SIRT3 transcription increase relative to control ([1]; 10 μM, listed as P4): 9 ± 3%
- SIRT3 transcription increase relative to control ([1]; 30 μM): 32.2 ± 6.1%
- SIRT3 transcription increase relative to control ([1]; 30 μM, listed as P4): 32 ± 6%
- SIRT3 transcription increase relative to control ([1]; 50 μM): 65 ± 12.1%
- SIRT3 transcription increase relative to control ([1]; 50 μM, listed as P4): 65 ± 12%
- SIRT3 transcription increase relative to control ([1]; 100 μM): 121±13%
- SIRT3 transcription increase relative to control ([1]; 100 μM, listed as Deca): 121 ± 13.2%
- SIRT3 transcription increase relative to control ([1]; 100 μM, listed as P4): 121 ± 13%
- SIRT3 transcription increase relative to control ([1]; 100 μM, listed as decapeptide): 121%
- SIRT3 transcription increase relative to control ([1]; 300 μM): 165.2 ± 12.4%
- SIRT3 transcription increase relative to control ([1]; 300 μM, listed as P4): 165 ± 12%
- SIRT3 transcription increase relative to control ([1]; 500 μM): 177 ± 9.2%
- SIRT3 transcription increase relative to control ([1]; 1000 μM): 171 ± 9%
- hypopigmenting efficacy [7]: potent hypopigmenting efficacy
- facial skin appearance [8]: overall improvement in facial skin appearance
- viability at 168 h, 3 µM [2]: 100%
- viability at 168 h, 10 µM [2]: 99 ± 1%
- viability at 168 h, 30 µM [2]: 98.4 ± 1%
- viability at 168 h, 50 µM [2]: 97.8 ± 1%
- viability at 168 h, 100 µM [2]: 97.1 ± 1%
- viability at 168 h, 300 µM [2]: 95.6 ± 2%
- viability at 168 h, 500 µM [2]: 94.2 ± 2%
- viability at 168 h, 1000 µM [2]: 93.8 ± 2%
- viability at 72 h, 3 µM [3]: 100%
- viability at 72 h, 10 µM [3]: 99 ± 1%
- viability at 72 h, 30 µM [3]: 99 ± 1%
- viability at 72 h, 50 µM [3]: 98 ± 1%
- viability at 72 h, 100 µM [3]: 97 ± 1%
- viability at 72 h, 300 µM [3]: 97 ± 1%
- viability at 72 h, 500 µM [3]: 97 ± 2%
- viability at 72 h, 1000 µM [3]: 96 ± 2%
- cell death ([9]; 100 μM): 3±1%
- cell death ([9]; 1 mM): 7±2%
- cytotoxicity compared with oxyresveratrol [9]: reduced cytotoxicity
- viability at 168 h, 3 µM [6]: 100%
- viability at 168 h, 10 µM [6]: 99 ± 1%
- viability at 168 h, 30 µM [6]: 98.3 ± 1%
- viability at 168 h, 50 µM [6]: 98 ± 1%
- viability at 168 h, 100 µM [6]: 97.3 ± 1%
- viability at 168 h, 300 µM [6]: 95.2 ± 2%
- viability at 168 h, 500 µM [6]: 94.6 ± 2%
- viability at 168 h, 1000 µM [6]: 94 ± 2%
